ChEMBL document CHEMBL3507680, “University of Dundee, Gates Library screen for HepG2 cell viability”

Test: Human HepG2 cell viability assay in 384 well format
Format: toxicity, cell-based
Set-up: dose 125 nL, time 70.5 hour; cytotoxicity at 70.5 h: concentration not given beside the values
Details: HepG2 cells, read-out: Inhibition

Structure (SMILES)	cytotoxicity at 70.5 h [%]
O=C(NCC(F)(F)F)C1CSCN1S(=O)(=O)c1ccc(F)cc1Cl (stereo not drawn)	-10.4
CC(C)c1nc(CN(C)C(=O)[C@H](N)Cc2ccc(Cl)cc2)cs1	2.45
COc1ccc2c(ccn2CC(=O)N2CCCC2c2cnn(C)c2)c1 (stereo not drawn)	0.452
CC(=O)Nc1cc(Br)cnc1OCC(F)(F)F	20.4
CC(C1CC1)N(CC(=O)NCC(F)(F)F)C1CC1 (stereo not drawn)	13.2
O=S(=O)(c1ccccc1)N1C[C@@H]2CCN[C@@H]2C1	-7.19
Cc1cc(C2CCCN2Cc2nc3ccccc3o2)on1 (stereo not drawn)	1.19
COc1ccc(OC2CCN(Cc3ccn(C)c(=O)c3)CC2)cc1	0.479
CC(C)(C)C(NC(=O)CCCS(C)(=O)=O)c1ccc(F)cc1F (stereo not drawn)	-0.26
CN(CC(=O)N1CC(C)(C)[C@](O)(C2CC2)C1)Cc1ccncc1	-3.61
COCc1ccccc1CNC(=O)CN1CCC2(CCOC2)C1 (stereo not drawn)	25
O=C(c1c(O)cnc2ccccc12)N1CCCSCC1	-1.19
CC(C)N(Cc1ccccn1)C(=O)CCC(=O)c1ccccc1	-7.32
COCCN1CCN(c2ccc(C)nn2)Cc2cccnc21	-7.28
c1cncc(CN2CCC(NCCc3ccc4c(c3)CCO4)CC2)c1	4.11
Cc1ccc(N2CCN(C3CCc4ccccc4C3)CC2)nn1 (stereo not drawn)	-8.25
O=C(NCC1CC1)c1cnc(-c2ccccc2)nc1	-5.81
C=Cn1ncc(CN2CCc3nc(-c4ccncc4)nc(O)c3C2)c1C	-4.39
CCCc1nc(N2CCCC(CCOC)C2)c2cnn(C)c2n1 (stereo not drawn)	15.9
CNC(=O)C1(CCCc2ccccn2)CN(Cc2coc(C)n2)C1	-5.7

Structure (SMILES)	cytotoxicity at 70.5 h [%]
CN1CCCN(C(=O)c2nc3sccn3c2-c2ncc[nH]2)CC1	-13
CCOCC(=O)Nc1ncc(I)cc1C	-7.61
Cc1cncc(Oc2ccc(CO)cc2)n1	-5.95
Cc1nc(C2CCCN2CC(=O)N2CCc3ccccc32)no1 (stereo not drawn)	21.3
COc1ccc(C(CO)NC(=O)Nc2cccnc2)cc1 (stereo not drawn)	12.6
O=C(c1ccoc1)N1CCC2(CCCN(c3ncc(F)cn3)C2)C1 (stereo not drawn)	-1.48
O=C(C1CCCO1)N1CCC(Cn2cc(C3CCCC3)nn2)CC1 (stereo not drawn)	2.36
CC(=O)c1ccc(N2CCCC(CO)(CCOc3ccccc3)C2)nc1 (stereo not drawn)	-13.1
CC(C)(C)C(=O)NCCn1ccc(-c2ccncc2)n1	-4.99
Cc1nn(C)c(C)c1CC(=O)N1CCCC1Cn1cccn1 (stereo not drawn)	-5
O=C(NCCNc1cnccn1)N1CCCC1	5.69
Cc1cc(SCC(N)=O)nc(-c2cccc(F)c2)n1	-11.7
CNC(=O)C(C)(C)NC(=O)c1cc(COc2ccccc2OC)[nH]n1	-8.56
Cc1cc2nc(-c3ccccc3)cc(NCC3CCS(=O)(=O)C3)n2n1 (stereo not drawn)	8.05
CN(C)C(CNS(=O)(=O)c1cc(F)ccc1F)c1cccn1C (stereo not drawn)	-11.3
CC(NC(=O)CCC(=O)c1cccs1)c1nnc2n1CCCCC2 (stereo not drawn)	-15.6
CC(=O)Nc1ncc(-c2ccc(C)cc2)[nH]1	4.65
Cc1ccc(CN2CCC3(CC(=O)N(c4cccc(F)c4)C3)C2)o1 (stereo not drawn)	-17.4
Cc1nnc([C@]23COC[C@H]2CN(Cc2cccs2)C3)o1	27.6
Cc1cc(N2CCC(O)CC2)nc(C)n1	1.14

Structure (SMILES)	cytotoxicity at 70.5 h [%]
Cc1nc(C2CCCN(C(=O)COCCc3ccccc3)C2)no1 (stereo not drawn)	-6.43
O=C(c1ccnnc1)N1C[C@H]2CCC[C@@H](OCc3cccnc3)[C@@H]2C1	-3.26
O=C1CC(c2cccnc2)C2(CCN(C(=O)c3ccncc3)CC2)N1 (stereo not drawn)	-1.04
Cc1cccc(CC(=O)N2CCCC(c3n[nH]c4nccnc34)C2)c1 (stereo not drawn)	14.6
CC(=O)c1ccc(OCC(=O)NS(=O)(=O)c2cccnc2)cc1	17.6
CC(O)CNC(=O)Nc1ccc(Br)cc1Br (stereo not drawn)	-3.83
Cc1ncoc1C(=O)N1CC[C@@]2(C[C@H](NS(C)(=O)=O)CCO2)C1	-7.59
CCOc1ccc(N2CCCN=C2NC(=O)c2ccc(OC)cc2)cc1	-9.82
COc1ccccc1CC(=O)NS(=O)(=O)c1ccc(NC(C)=O)cc1	-6.22
CCN(CC)CCCN1CCN(c2nc(C)cnc2C)CC1	-7.19
Cc1ocnc1CNC(=O)Nc1ccc(N2CCOC(C)C2)cc1 (stereo not drawn)	-17.7
Cc1ccccc1CC1(CO)CCCN(c2ncnc3sccc23)C1 (stereo not drawn)	31.4
CCc1ccc(S(=O)(=O)Nc2ccc(F)cc2C(=O)O)s1	5.89
Cc1cnn(Cc2ccc(NC(=O)N3CCCCC3CO)cc2)c1 (stereo not drawn)	24.6
CCOC(=O)c1cnn(-c2cc(Oc3ccccc3C)ncn2)c1N	23.9
COCC(=O)N[C@H]1C[C@H]2C(=O)NC[C@@H](CCC(=O)NC3CC3)N2C1	-2.9
CCc1cc(C(=O)N2CCC(Nc3ccc(C)nn3)CC2)sc1C	-2.56
COc1cccc2c1OCC(NCc1cnn(-c3ccccc3)c1)C2 (stereo not drawn)	14.4
